Where “and” joins values, the source holds several entries; their conditions need not be identical. Equal entries are not always repeated.
Assays:
[1] = molecular target: T1, Nitric oxide synthase 3 (Homo sapiens) (UniProt P29474); experiment: Ability (at 100 catalyzed by endothelial NOS (e NOS) from HUVEC cells; type: functional, cell-based; details: concentration not given here
T1 sequence (whole entry): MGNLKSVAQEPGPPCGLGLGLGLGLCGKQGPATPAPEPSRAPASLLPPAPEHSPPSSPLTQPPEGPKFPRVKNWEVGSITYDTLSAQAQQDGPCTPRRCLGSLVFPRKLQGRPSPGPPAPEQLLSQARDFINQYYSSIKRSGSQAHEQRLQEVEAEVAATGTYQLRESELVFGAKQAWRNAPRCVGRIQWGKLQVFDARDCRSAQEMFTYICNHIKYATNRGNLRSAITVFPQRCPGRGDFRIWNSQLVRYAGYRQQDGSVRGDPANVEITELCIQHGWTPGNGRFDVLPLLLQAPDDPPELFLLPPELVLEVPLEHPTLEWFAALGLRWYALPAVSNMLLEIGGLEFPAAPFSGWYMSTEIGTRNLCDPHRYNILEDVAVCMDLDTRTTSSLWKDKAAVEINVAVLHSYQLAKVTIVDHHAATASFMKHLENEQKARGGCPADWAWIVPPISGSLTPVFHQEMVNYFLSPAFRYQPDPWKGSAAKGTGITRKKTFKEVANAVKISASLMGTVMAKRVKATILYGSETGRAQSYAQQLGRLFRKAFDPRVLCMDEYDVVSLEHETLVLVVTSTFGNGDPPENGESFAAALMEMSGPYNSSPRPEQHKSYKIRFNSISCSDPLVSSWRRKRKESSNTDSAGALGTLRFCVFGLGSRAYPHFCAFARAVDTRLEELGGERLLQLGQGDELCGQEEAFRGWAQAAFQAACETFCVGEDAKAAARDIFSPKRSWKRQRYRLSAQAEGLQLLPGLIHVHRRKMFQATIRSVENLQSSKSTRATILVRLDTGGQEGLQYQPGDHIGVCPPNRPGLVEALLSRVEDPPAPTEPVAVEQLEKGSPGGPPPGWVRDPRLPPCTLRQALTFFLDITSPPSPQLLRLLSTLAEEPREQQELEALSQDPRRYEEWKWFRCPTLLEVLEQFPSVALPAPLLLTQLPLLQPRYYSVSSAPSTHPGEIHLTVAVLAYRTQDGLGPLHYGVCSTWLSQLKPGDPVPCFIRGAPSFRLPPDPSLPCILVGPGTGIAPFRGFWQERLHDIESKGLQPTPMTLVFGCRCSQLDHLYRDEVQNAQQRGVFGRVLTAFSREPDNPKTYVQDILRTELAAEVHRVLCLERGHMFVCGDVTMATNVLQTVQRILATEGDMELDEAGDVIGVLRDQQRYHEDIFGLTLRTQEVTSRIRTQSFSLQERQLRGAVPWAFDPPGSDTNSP

Nitric oxide synthase 1 = Nitric oxide synthase 1 (Rattus norvegicus, UniProt P29476); experiment: Inhibition of conversion of [3H]L-Arg to [3H]L-citrulline catalyzed by neuronal NOS (n NOS) from rat cerebellum; type: functional, tissue-based
[2] = molecular target: T2, Nitric oxide synthase, inducible (Homo sapiens, UniProt P35228); experiment: Ability to inhibit conversion of [3H]L-Arg to [3H]L-citrulline catalyzed by inducible NOS (i NOS) from human DLD-1 cells; type: functional, cell-based
Nitric oxide synthase 3 = molecular target: T3, Nitric oxide synthase 3 (Homo sapiens, UniProt P29474); experiment: Ability to inhibit conversion of [3H]L-Arg to [3H]L-citrulline catalyzed by endothelial NOS (e NOS) from HUVEC cells; type: functional, cell-based
T3 sequence (P29474 whole entry): T1 sequence (whole entry)

[3] = molecular target: T2, Nitric oxide synthase, inducible; experiment: Inhibitory concentration against nitric oxide synthesis in intact DLD-1 cells; type: functional, cell-based
DLD-1 [4] = experiment: (§1) Ability (at 100 catalyzed by inducible NOS (i NOS) from human DLD-1 cells; type: functional
Rattus norvegicus = species: Rattus norvegicus; experiment: Ability (at 100 catalyzed by neuronal NOS (n NOS) from rat cerebellum; type: functional
DLD-1 [5] = experiment: as §1; type: functional, cell-based

T2 sequence (P35228 whole entry): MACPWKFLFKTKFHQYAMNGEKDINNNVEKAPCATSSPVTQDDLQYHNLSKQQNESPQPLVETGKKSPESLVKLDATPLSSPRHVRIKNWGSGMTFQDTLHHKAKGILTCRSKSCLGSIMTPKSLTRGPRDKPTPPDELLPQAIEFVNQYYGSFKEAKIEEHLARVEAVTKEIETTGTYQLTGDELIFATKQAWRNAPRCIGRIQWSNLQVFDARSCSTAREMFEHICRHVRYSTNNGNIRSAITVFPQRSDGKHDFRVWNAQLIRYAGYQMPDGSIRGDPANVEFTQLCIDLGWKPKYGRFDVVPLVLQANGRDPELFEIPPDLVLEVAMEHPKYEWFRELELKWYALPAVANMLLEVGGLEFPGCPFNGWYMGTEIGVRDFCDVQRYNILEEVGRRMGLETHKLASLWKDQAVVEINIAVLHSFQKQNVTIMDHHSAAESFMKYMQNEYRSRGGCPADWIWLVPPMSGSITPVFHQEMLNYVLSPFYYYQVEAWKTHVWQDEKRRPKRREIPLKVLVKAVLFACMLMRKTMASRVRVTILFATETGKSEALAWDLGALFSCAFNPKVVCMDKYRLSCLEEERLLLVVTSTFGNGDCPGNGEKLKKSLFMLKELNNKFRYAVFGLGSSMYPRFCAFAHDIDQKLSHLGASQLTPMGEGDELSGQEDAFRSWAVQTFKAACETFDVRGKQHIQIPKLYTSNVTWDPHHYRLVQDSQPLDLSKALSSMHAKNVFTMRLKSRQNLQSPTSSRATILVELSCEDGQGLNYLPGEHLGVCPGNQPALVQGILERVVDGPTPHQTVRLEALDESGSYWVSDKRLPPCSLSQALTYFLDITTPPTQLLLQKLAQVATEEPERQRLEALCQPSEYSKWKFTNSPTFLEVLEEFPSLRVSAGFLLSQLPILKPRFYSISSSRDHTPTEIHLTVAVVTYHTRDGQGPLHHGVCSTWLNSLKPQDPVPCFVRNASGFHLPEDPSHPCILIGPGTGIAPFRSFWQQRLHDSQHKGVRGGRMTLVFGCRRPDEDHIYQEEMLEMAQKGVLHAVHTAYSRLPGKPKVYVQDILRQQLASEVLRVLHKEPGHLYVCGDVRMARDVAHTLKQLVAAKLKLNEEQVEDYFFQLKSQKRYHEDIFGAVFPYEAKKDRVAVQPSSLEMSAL
Sequence of Nitric oxide synthase 1 (P29476 whole entry): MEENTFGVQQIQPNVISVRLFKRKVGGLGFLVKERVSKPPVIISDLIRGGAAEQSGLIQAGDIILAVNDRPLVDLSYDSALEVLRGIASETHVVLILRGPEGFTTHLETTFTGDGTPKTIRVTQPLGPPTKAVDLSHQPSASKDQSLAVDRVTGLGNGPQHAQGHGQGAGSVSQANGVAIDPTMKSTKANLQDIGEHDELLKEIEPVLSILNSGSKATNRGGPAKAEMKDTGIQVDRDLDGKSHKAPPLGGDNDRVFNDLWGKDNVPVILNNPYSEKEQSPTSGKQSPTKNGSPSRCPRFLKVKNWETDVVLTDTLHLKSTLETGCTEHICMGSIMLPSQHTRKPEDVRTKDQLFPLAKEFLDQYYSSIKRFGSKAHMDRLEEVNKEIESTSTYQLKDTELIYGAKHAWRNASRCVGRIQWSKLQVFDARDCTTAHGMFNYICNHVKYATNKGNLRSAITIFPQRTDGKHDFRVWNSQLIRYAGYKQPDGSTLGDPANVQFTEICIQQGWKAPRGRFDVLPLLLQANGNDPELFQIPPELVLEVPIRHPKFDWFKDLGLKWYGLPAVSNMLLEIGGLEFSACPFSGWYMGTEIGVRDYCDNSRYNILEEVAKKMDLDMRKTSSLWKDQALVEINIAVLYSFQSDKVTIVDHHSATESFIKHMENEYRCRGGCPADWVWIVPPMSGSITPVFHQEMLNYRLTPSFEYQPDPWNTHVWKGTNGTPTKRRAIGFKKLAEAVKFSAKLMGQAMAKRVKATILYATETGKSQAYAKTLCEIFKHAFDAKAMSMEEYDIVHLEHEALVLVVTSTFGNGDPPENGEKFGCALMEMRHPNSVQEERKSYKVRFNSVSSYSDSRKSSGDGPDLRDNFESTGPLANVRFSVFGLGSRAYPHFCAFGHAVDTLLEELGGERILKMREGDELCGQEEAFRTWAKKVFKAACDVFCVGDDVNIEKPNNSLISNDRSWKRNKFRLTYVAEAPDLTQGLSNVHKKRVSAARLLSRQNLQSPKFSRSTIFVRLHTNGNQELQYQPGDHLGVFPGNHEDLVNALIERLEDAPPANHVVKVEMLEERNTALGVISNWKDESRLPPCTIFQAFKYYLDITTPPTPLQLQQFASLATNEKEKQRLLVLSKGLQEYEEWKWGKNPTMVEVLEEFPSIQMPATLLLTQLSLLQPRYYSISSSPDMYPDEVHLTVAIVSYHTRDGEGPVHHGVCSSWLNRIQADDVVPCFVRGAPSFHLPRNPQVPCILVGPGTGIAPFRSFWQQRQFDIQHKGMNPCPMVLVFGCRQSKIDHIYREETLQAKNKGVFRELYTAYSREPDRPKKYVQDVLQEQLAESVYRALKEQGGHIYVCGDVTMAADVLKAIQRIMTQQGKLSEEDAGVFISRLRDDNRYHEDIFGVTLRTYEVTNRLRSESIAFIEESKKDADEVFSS

Row | Compound | inhibition [1] | IC50 (Nitric oxide synthase 1) | IC50 [2] | IC50 (Nitric oxide synthase 3) | IC50 [3] | Inhibition (DLD-1 [4]) | Inhibition (Rattus norvegicus) | Inhibition (DLD-1 [5])
1 | NC1=NC(c2ccco2)Cc2ccccc21 (centres undefined) | – | 0.9 µM | 1.2 µM | 5 µM | – | – | – | –
2 | NC1=NC(c2ccc(F)cc2)Cc2cccc(Cl)c21 (centres undefined) | 39% | 100 µM | – | 5 µM | 350 µM | – | – | –
3 | NC1=NC(c2ccc(F)cc2)Cc2cccc(F)c21 (centres undefined) | < 25% | 16 µM | – | – | 350 µM | – | – | –
4 | NC1=NC(c2ccc(Cl)cc2)Cc2ccccc21 (centres undefined) | – | 30 µM | – | 86 µM | – | 46% | – | –
5 | NC1=NC(c2ccccc2)Cc2cccc(Cl)c21 (centres undefined) | < 25% | – | – | 6 µM | – | – | 25% | –
6 | COC(=O)[C@@H](N)CCCNC(=N)N[N+](=O)[O-] [L-NAME] | – | 0.15 µM | 14 µM | 2.7 µM | 300 µM | – | – | –
7 | NC1=NC(c2ncc[nH]2)Cc2ccccc21 (centres undefined) | 47% and < 25% | – | – | – | – | – | <25% | –
8 | NC1=NC(c2ccccc2F)Cc2ccccc21 (centres undefined) | – | 13 µM | 33 µM | 44 µM | – | – | – | –
9 | NC1=NC(c2ccc(F)cc2)Cc2cc(F)ccc21 (centres undefined) | – | 20 µM | 9 µM | 100 µM | – | – | – | –
10 | NC1=NC(c2ccc(F)cc2)Cc2ccc(F)cc21 (centres undefined) | – | 44 µM | – | 55 µM | – | 43% | – | –
11 | N=C(N)NN [PIMAGEDINE] | – | 6 µM | 4.5 µM | 72 µM | – | – | – | –
12 | NC1=NC(c2ccccc2)Cc2ccccc21 (centres undefined) | < 25% | 12 µM | – | 9 µM | – | – | – | –
13 | C#CC1Cc2ccccc2C(N)=N1 (centres undefined) | – | 0.4 µM | 2.7 µM | 0.9 µM | – | – | – | –

More lines, in order of falling IC50 (Nitric oxide synthase 1), values ahead:

Row | inhibition [1] | IC50 (Nitric oxide synthase 1) | IC50 [2] | IC50 (Nitric oxide synthase 3) | IC50 [3] | Compound | Inhibition (DLD-1 [4]) | Inhibition (Rattus norvegicus) | Inhibition (DLD-1 [5])
14 | < 25% | 10 µM | – | – | – | CC1(C)Cc2ccccc2C(N)=N1 | – | – | –
15 | < 25% | 10 µM | – | 9 µM | – | NC1=NC(c2cccc(F)c2)Cc2ccccc21 (centres undefined) | – | – | –
16 | – | 9 µM | 5.5 µM | 40 µM | – | NC1=NC(c2ccc(F)cc2)Cc2ccccc21 (centres undefined) | – | – | –
17 | – | 8 µM | 4.2 µM | 19 µM | 880 µM | NC1=NC(c2nccs2)Cc2ccccc21 (centres undefined) | – | – | –
18 | – | 5 µM | 4.7 µM | 44 µM | – | NC1=NC(c2ccc(F)cc2)Cc2c(F)cccc21 (centres undefined) | – | – | –
19 | – | 3 µM | 18 µM | 4 µM | – | CC1Cc2ccccc2C(N)=N1 (centres undefined) | – | – | –
20 | – | 2 µM | – | 12 µM | – | NC1=NCCCc2ccccc21 | – | – | < 25%
21 | – | 2 µM | 2.7 µM | 8 µM | – | NC1=NC(c2cccs2)Cc2ccccc21 (centres undefined) | – | – | –
22 | – | 2 µM | 0.55 µM | 80 µM | 130 µM | NC1=NC(c2ccccc2)Cc2cccc(F)c21 (centres undefined) | – | – | –
23 | – | 1.6 µM | 0.13 µM | 2.4 µM | 470 µM | CC(=N)NCCCC[C@H](N)C(=O)O [L-NIL] | – | – | –
24 | – | 1.5 µM | 1.3 µM | 3.6 µM | 300 µM | NC1=NC(C2CC2)Cc2ccccc21 (centres undefined) | – | – | –
25 | – | 0.4 µM | 32 µM | 2 µM | – | NC1=NCCc2ccccc21 | – | – | –
